Reference: patent publication US9416139B2, “Spiro ring compound as hepatitis C virus (HCV) inhibitor and uses thereof” (SUNSHINE LAKE PHARMA CO., LTD., priority 2012, dated 2016)

Tests used:
[1] = system: HCV 1a replicon; experiment: HCV GT1a replicon assay in Huh-7 cells; assay type: cell-based, Hepatitis C virus; details: Hepatitis C virus; Huh-7 cells transfected with HCV replicon, 72 hours incubation; read-out: EC50 against HCV 1a genotype
Experimental: (§1) HCV Replicon System was utilized as an evaluation model in the present disclosure for verifying the effects of the compounds disclosed herein on HCV. An HCV Replicon assay was first described in Science, 1999, 285 (5424), 110-3. […] To determine the potential anti-HCV effects of the test compounds, luciferase assay and antibiotic Neomycin resistance gene were tested according to the method described in Science. 1999 Jul. 2; 285 (5424), 110-3 and J. Virol. 2003 March; 77 (5), 3007-19.
(§2) In a word, the compounds disclosed herein were tested by using human hepatic carcinoma cell line which is transfected stably HCV GT1a, GT1b or GT2a replicon respectively, and resistant cells Y93H, L31F, P32L or I302V and wild-type cells HCV 1b. HCV Replicon System disclosed herein containing Neomycin resistance gene and Luciferase Reporter Gene, the level of HCV replication in host cells is characterized by the expression level of the NEO gene expression level or Luciferase Reporter Gene, and the effects of the compounds herein inhibit HCV replication can be evaluated. In this article, a real-time quantitative polymerase chain reaction (qPCR) method was used to detect NEO gene expression level, and chemiluminescence method was used to test Luciferase Reporter Gene expression level.
(§3) 1. Test Method for Measuring EC50 of the Compounds Base on Luciferase Assay.
(§4) The Huh-7 cells transfected with HCV replicons system were seeded into 96-well plates (8,000 cells in 125 μL/well) respectively; each test compound was diluted to desired concentration using 5-fold serial dilutions protocol, 10 doses in duplicate, and added to wells with POD™ 810 Plate Assembler. […] In this paper, experiments were repeated twice and set the holes without compounds as negative control.
(§5) 2. Test Method for Measuring EC50 of the Compounds by Detecting Antibiotic G418 Resistance Gene NEO Gene.
(§6) In this paper, experiments were repeated twice and set the holes without compounds as negative control.

[2] = system: HCV 1b replicon; experiment: HCV GT1b replicon assay in Huh-7 cells; assay type: cell-based, Hepatitis C virus; details: Hepatitis C virus; Huh-7 cells transfected with HCV replicon, 72 hours incubation; read-out: EC50 against HCV 1b genotype
Experimental: as §1, §2, §3, §4, §5, §6

Compound	EC50 [1] [nM]	EC50 [2] [nM]
COC(=O)N[C@H](C(=O)N1CCC[C@H]1c1ncc(-c2ccc(-c3ncc(-c4ccc5nc([C@@H]6CCCN6C(=O)[C@@H](NC(=O)OC)C(C)C)[nH]c5c4)c4c3CC3(CCCC3)C4)c3c2CCC3)[nH]1)C(C)C [Example 30]	0.336	0.052
COC(=O)N[C@H](C(=O)N1CCC[C@H]1c1ncc(-c2ccc(-c3ncc(-c4ccc5nc([C@@H]6CCCN6C(=O)[C@@H](NC(=O)OC)C(C)C)[nH]c5c4)c4c3CC3(CCCC3)C4)c3ccccc23)[nH]1)C(C)C [Example 31]	5.87	0.539
COC(=O)N[C@H](C(=O)N1CCC[C@H]1c1ncc(-c2ccc(-c3sc(-c4ccc5nc([C@@H]6CCCN6C(=O)[C@@H](NC(=O)OC)C(C)C)[nH]c5c4)c4c3CC3(CCCC3)C4)c3cnoc23)[nH]1)C(C)C [Example 32]	10.3	0.446
COC(=O)NC(C(=O)N1CCC[C@H]1c1ncc(-c2ccc(-c3cc(F)c(-c4ccc5nc([C@@H]6CCCN6C(=O)[C@@H](NC(=O)OC)C(C)C)[nH]c(=O)c5c4)c4c3CC3(CCCC3)C4)nc2)[nH]1)C(C)C (some centres unmarked) [Example 33]	0.078	0.022
COC(=O)NC(C(=O)N1CCC[C@@H]1c1ncc(-c2ccc(-c3ccc(-c4ccc5nc([C@@H]6CCCN6C(=O)[C@@H](NC(=O)OC)C(C)C)[nH]c(=O)c5c4)c4c3CC3(CCCC3)C4)cc2)[nH]1)C(C)C (some centres unmarked) [Example 34]	0.641	0.055
COC(=O)NC(C(=O)N1CCCC1c1cc(=O)c2cc(-c3ccc(-c4ccc(-c5cnc(C6CCCN6C(=O)C(NC(=O)OC)C(C)C)[nH]5)cc4)c4c3CC3(CCCC3)C4)ccc2[nH]1)C(C)C (centres unmarked) [Example 35]	10.6	0.103
COC(=O)NC(C(=O)N1CCCC1C1=Nc2cc(-c3ccc(-c4ccc(-c5cnc(C6CCCN6C(=O)C(NC(=O)OC)C(C)C)[nH]5)cc4)c4c3CC3(CCCC3)C4)ccc2C(C)(C)N1)C(C)C (centres unmarked) [Example 36]	0.438	0.062
